Assay results taken from paper PMC12005787, “Synthetic Lethality of SHP2 and XIAP Suppresses Proliferation and Metastasis in KRAS‐mutant Nonsmall Cell Lung Cancer” (Advanced Science, 2025).

Columns and labels:
[1] = tested on: NCI-H2122, A549, and NCI-H1944 cells; experiment: Cell senescence β-galactosidase staining; type: cell-based, human; conditions: A549, NCI‐H2122, and NCI‐H1944 cells
Procedure: Cell senescence β-galactosidase staining
NCI-H2122, A549, and NCI-H1944 cells in the logarithmic growth phase were seeded into 48-well plates and cultured overnight. The supernatant was aspirated and fresh serum-free (0%), low-serum (3%), or regular serum (10%) medium with different drugs was added for 48 h. When the supernatant was discarded, β-galactosidase staining fixation fluid were added for 15 min and β-galactosidase staining solution were imported overnight at 37 ℃.
Finally, the staining results were recorded using an inverted microscope.

SHP2 = target: T1, SHP2 (Homo sapiens, UniProt Q06124); experiment: Cellular thermal shift assay (CETSA); type: binding; conditions: NCI‐H2122 cell lysate
T1 construct: endogenous in cells; host or cells: NCI-H2122
T1 sequence (Q06124 1-593): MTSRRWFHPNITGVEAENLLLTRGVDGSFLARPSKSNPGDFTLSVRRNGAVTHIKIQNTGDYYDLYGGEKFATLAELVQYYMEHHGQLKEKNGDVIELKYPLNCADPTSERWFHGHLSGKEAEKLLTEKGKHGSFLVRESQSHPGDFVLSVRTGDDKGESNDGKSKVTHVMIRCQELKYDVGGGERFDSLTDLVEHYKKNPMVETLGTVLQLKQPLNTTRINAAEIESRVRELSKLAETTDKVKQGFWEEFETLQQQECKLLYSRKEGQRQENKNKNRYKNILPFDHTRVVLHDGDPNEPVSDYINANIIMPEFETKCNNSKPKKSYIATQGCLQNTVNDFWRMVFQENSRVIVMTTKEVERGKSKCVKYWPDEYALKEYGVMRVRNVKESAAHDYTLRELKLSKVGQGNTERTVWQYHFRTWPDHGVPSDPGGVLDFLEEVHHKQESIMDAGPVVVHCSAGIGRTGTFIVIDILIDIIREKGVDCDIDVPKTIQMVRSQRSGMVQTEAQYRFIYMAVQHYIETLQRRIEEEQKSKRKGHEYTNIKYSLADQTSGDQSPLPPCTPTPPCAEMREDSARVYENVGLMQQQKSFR

His‐SHP2 (full‐length) = target: T2, His‐SHP2 (full‐length) (Homo sapiens, UniProt Q06124); experiment: Full-length SHP2 activity activated by bis-phosphorylated Gab1 peptide; type: biochemical
T2 construct: His; made in house; host or cells: E. coli
Procedure: For detection of SHP2 allosteric regulation by the compounds, the soluble fusion His‐SHP2 protein was cloned, expressed, and purified by constructing a pET28a‐PTPN11 recombinant plasmid in E. coli. Subsequently, 148 nM His‐SHP2 protein with 14.8 µM peptide (bis‐phosphorylated peptide from Gab1, with the sequence of: H2N‐VE(pY)LDLDLD(PEG8)RVD‐(pY)VVVDQQ‐amide) was mixed thoroughly in reaction buffer and incubated for 30 min at 37 °C in the dark. The fluorescence intensity was detected by DiFMUP after addition of different drugs and incubation at 37 °C for 30 min, with SHP099 and Na3VO4 as positive controls and unactivated protein as negative controls.

A549 and NCI‐H2122 cells = experiment: Compound removal from culture media (western blotting); type: cell-based, human
Source text: Due to the poor membrane permeability of SHP2 catalytic inhibitors,^[ [18], [30] ^] we examined the effect of embelin on SHP2 expression and phosphorylation after removing the compound from the culture media of A549 and NCI‐H2122 cells.

[2] = tested on: KRAS‐mutant NSCLC cells in 3D culture; experiment: Cell proliferation in 3D cell culture (ATP chemiluminescence); type: cell-based
Procedure: supplies are listed in Supplementary Table S5. […]
For the adherent cell viability assay, cells in the logarithmic growth phase were seeded in 96-well culture plates at a density of 5×103 well-1 and incubated overnight. Diluted compounds or DMSO were added, or specific treatments were incubated at 37 °C and 5% CO2 for 24 h or 48 h. Cell viability was determined using CCK-8 or CellLightTM Cell Viability Assay Kit, according to the manufacturer's protocol. The luminescence signals of the treated samples were normalized to those of the DMSO group.
For spherical cell viability assays, cells in the logarithmic growth phase were inoculated ata density of 4×10^3 well-1 into 96-well spherical cell microplates and incubated at 37 °C, 5% CO2 for 24 h or 48 h. Cell viability was measured using the CellTiter-Glo® Luminescent Cell Viability 3D Cell Viability Assay Kit, according to the manufacturer’s protocol. The remaining steps were the same as those described above. […]
Figure S7. Targeting SHP2 and XIAP produces a synthetic lethal effect. (A) Effects of NSC-87877 on cell viability of A549 and NCI-H2122 cells after 24 and 48 h were determined using the CCK-8. Bars, ± SEM. […]
tailed Student’s t-test).(K) Effects of SHP099 and GDC-0152 separately and in combination with […] on the cell viability of human KRAS-WT and -mutant cells were assessed using a colony formation assay. […]

| Compound | induction of cell senescence [1] | effect on SHP2 protein stability (CETSA) (SHP2) | effect on SHP2 full‐length activity allosterically activated by bis‐phosphorylated Gab1 peptide (His‐SHP2 (full‐length)) | membrane permeability (inferred from removal after 6 h vs continuous 24 h treatment) (A549 and NCI‐H2122 cells) | effect on cell proliferation in 3D cell culture [2] |
| --- | --- | --- | --- | --- | --- |
| CCCCCCCCCCCC1=C(O)C(=O)C=C(O)C1=O [Embelin] | induced senescence | increased the stability of SHP2 protein | no effect | strong membrane permeability | – |
| CC1(N)CCN(c2cnc(-c3cccc(Cl)c3Cl)c(N)n2)CC1 [SHP099] | – | – | – | – | partially inhibited cell proliferation |
